These results are taken from PMC3877901, “Screening Mangrove Endophytic Fungi for Antimalarial Natural Products” (Marine Drugs, 2013).

The structures appear in SMILES notation. “Also recorded” adds a separate entry of the source. Read-outs that look alike come from different tables or passages of the source.

Data set [1] has as its system A549 human lung adenocarcinoma epithelial cells. Kind of data set: In vitro toxicity assay: cytotoxicity against A549 cells (CellTiter 96 Aqueous One, 72 h). The note with it: for IC50: Homo sapiens, A549, 72 h, read-out: IC50 (nM) A549.
In data set [2] the test system is Plasmodium falciparum (3D7, a drug sensitive strain). Kind of data set: Malaria assay: anti-malarial activity against Plasmodium falciparum (3D7). The class given is cell-based.
Data set [3] concerns A549 human lung adenocarcinoma epithelial cells.
[4] abbreviates: Plasmodium falciparum 3D7, read-out: IC50 (nM) 3D7.
Setting [5] is: Plasmodium falciparum, 3D7, read-out: IC50 (nM) 3D7.

Regarding `O=C1C(O)=C([C@H]2CC[C@H](c3ccc(Cl)cc3)CC2)C(=O)c2ccccc21` [ATO, atovaquone, reference compound], the IC50 in data set [1] was > 25000 nM; in data set [2] (setting [4]), 0.3 nM.

Take `CCN(CC)CCCC(C)Nc1ccnc2cc(Cl)ccc12` (centres unmarked) [CQ, chloroquine, reference compound]: the IC50 in data set [1] was > 25000 nM; in data set [2] (setting [5]) it was 4.5 nM.

Take `CC(=O)OC1C2OC2C(C)(O)C(=O)C(C)CC=CC2C(O)C(C)=C(C)C3C(Cc4ccccc4)NC(=O)C213` (centres unmarked) [Compound 1]: the IC50 in data set [2] (setting [5]) was < 20 nM.

`CC(=O)OC1C=CC(C)(O)C(=O)C(C)CC=CC2C(O)C(C)=C(C)C3C(Cc4ccccc4)NC(=O)C123` (centres unmarked) [Compound 2]: the IC50 in data set [2] (setting [5]) turned out to be 136 nM.

In the case of `CC(=O)OC1C=CC(C)(O)C(=O)C(C)CC=CC2C(O)C3(C)OC3(C)C3C(Cc4ccccc4)NC(=O)C123` (centres unmarked) [Compound 3], the IC50 in data set [2] (setting [5]) is < 20 nM.

On to `C=C1[C@@H](C)[C@H]2[C@H](Cc3ccccc3)NC(=O)[C@]23[C@H](OC(C)=O)/C=C/[C@@](C)(O)C(=O)[C@@H](C)C/C=C/[C@H]3[C@@H]1O` [Compound 4, cytochalasin D], for which the half-inhibitory concentration (IC50) in data set [2] (setting [5]) was 25.8 nM.

On to `C=C1C(C)C2C(Cc3ccccc3)NC(=O)C23C(OC(C)=O)C=CC(C)(O)CC(C)CC=CC3C1O` (centres unmarked) [Compound 5], for which the concentration for half-maximal inhibition (IC50) in data set [2] (setting [5]) is < 20 nM.

For the compound `C=C1C(C)C2C(Cc3ccccc3)NC(=O)C23C(O)C=CC(C)(O)CC(C)CC=CC3C1O` (centres unmarked) [Compound 6], in data set [2] (setting [4]), the IC50 is < 20 nM.

As for `CC(=O)OC1C=CC(C)(O)C(=O)C(C)CC2OC2C2C3OC3(C)C(C)C3C(Cc4ccccc4)N(C)C(=O)C132` (centres unmarked) [Compound 7], the IC50 in data set [2] (setting [5]) is 290 nM.

For the compound `CC(=O)OC1C=CC(C)(O)C(=O)C(C)CC=CC2C3OC3(C)C(C)C3C(Cc4ccccc4)N(C)C(=O)C123` (centres unmarked) [Compound 8], in data set [2] (setting [5]), the IC50 came out at 26 nM.

Turning to `C=C1C2CC3OC(=O)C=CC=CC(C(C)O)OCCC(C)=CC(=O)OCC4(CCC(C)=CC4O2)C13C` (centres unmarked) [Compound 10], the results for the IC50 in data set [1] and in data set [2] (setting [5]) were < 200 nM and < 20 nM, respectively.

On to `CCCc1c(Cl)c(OC)cc(OC)c1C(=O)O` [Compound 11, acremonisol A], for which the IC50 in data set [1] is > 38700 nM; in data set [2] (setting [4]), 36000 nM. In addition, the “antimalarial activity (in words)” value in data set [2] (P. falciparum 3D7) was “devoid of antimalarial activity”.

With `COc1ccc(C)c2c1C(=O)OC(C)C2` (centres unmarked) [Compound 12, 3,5-dimethyl-8-methoxy-3,4-dihydroisocoumarin], the half-inhibitory concentration (IC50) in data set [1] and in data set [2] (setting [4]) was > 48500 nM throughout. Besides, the “antimalarial activity (in words)” value in data set [2] (P. falciparum 3D7) is listed as “devoid of antimalarial activity”.

As to `CC(=O)OC[C@]12Oc3ccc(-c4ccc5c(c4O)C(=O)C4=C(O)C[C@@H](C)[C@@H](OC(C)=O)[C@@]4(CO)O5)c(O)c3C(=O)C1=C(O)C[C@@H](C)[C@H]2OC(C)=O` [Compound 13, Dicerandrol B], the 50% inhibitory concentration (IC50) in data set [1] and in data set [2] (setting [5]) was > 25000 nM in each case. The “cytotoxicity (in words)” value in data set [3] was “failed to show either activity”. In data set [2], the “antimalarial activity (in words)” value is given as “failed to show either activity”.

On to `CC(=O)OC[C@]12Oc3ccc(-c4ccc5c(c4O)C(=O)C4=C(O)C[C@@H](C)[C@@H](OC(C)=O)[C@]4(CO)O5)c(O)c3C(=O)C1=C(O)C[C@@H](C)[C@H]2OC(C)=O` [Compound 14, dicerandrol D], for which, in data set [1], the “S.I. A549/3D7 (selectivity index)” value is given as 13 and the IC50 amounted to 7800 nM. Also, in data set [3] (human), the “cytotoxicity relative to malaria activity” value was “at least 10 fold”. For the same compound, in data set [2], the “antimalarial activity (in words)” value is “nanomolar antimalarial activity; also recorded: strong activity against P. falciparum; also recorded: nanomolar malaria activity”. In addition, in data set [2] (setting [5]), the 50% inhibitory concentration (IC50) amounted to 600 nM.

Regarding `C[C@H]1CC(=O)O[C@@H]1[C@@]1(CO)CC(=O)c2c(ccc(-c3ccc(O)c4c3O[C@](CO)([C@H]3OC(=O)C[C@@H]3C)CC4=O)c2O)O1` [Compound 15, diaporthochromone A], the concentration for half-maximal inhibition (IC50) in data set [1] and in data set [2] (setting [4]) was > 25000 nM in each case.

Take `CC1CC(=O)OC1C1(CO)CC(=O)c2c(ccc(-c3ccc4c(c3O)C(=O)CC(CO)(C3OC(=O)CC3C)O4)c2O)O1` (centres unmarked) [Compound 16, Diaporthochromone B]: the IC50 in data set [1] and in data set [2] (setting [4]) was > 25000 nM throughout.

With `CCC(C)CC(C)/C=C/C=C/C(=O)O` (centres unmarked) [Compound 18, (2E,4E)-6,8-Dimethyldeca-2,4-dienoic Acid], the IC50 in data set [1] and in data set [2] (setting [4]) was > 25000 nM in each case. In addition, the “antimalarial activity (in words)” value in data set [2] (P. falciparum 3D7) is “inactive”.

In the case of `CCCCC/C=C(/C(=O)O)C(C)C(=O)O` (centres unmarked) [Compound 19, piliformic acid], the half-maximal inhibitory concentration (IC50) in data set [1] and in data set [2] (setting [4]) was > 25000 nM each time. The “antimalarial activity (in words)” value in data set [2] (P. falciparum 3D7) was “inactive”.

For `C[C@H]1[C@@H](O)O[C@@H]2O[C@@]3(C)CC[C@H]4[C@H](C)CC[C@@H]1[C@@]24OO3` [DHA, dihydroartemisinin, reference compound], the IC50 is > 25000 nM in data set [1] and 0.8 nM in data set [2] (setting [4]).

The IC50 is the concentration at which inhibition is half-maximal.
